Assay results reported in ChEMBL document CHEMBL4513137, “CO-ADD screening of University of Manchester (UK) compounds”.
In brackets after ≈: the same amount, converted by molar mass.

What was measured:
Escherichia coli = experiment: microbe, parasite or virus in culture; conditions: ATCC 25922, 18 h, ASSAY_TEST Inhibition of Bacterial Growth, detection method Absorption (OD600), MEDIA CAMHB, plate type 384well, NBS, CORNING #3640
Description: Antibacterial activity against Escherichia coli ATCC 25922 (CO-ADD:GN_001); MIC in CAMBH media using NBS plates, by OD(600)

Klebsiella pneumoniae = experiment: microbe, parasite or virus in culture; conditions: ATCC 700603, 18 h, ASSAY_TEST Inhibition of Bacterial Growth, detection method Absorption (OD600), MEDIA CAMHB, plate type 384well, NBS, CORNING #3640
Description: Antibacterial activity against Klebsiella pneumoniae MDR ATCC 70063 (CO-ADD:GN_003); MIC in CAMBH media using NBS plates, by OD(600)

Pseudomonas aeruginosa = experiment: microbe, parasite or virus in culture; conditions: ATCC 27853, 18 h, ASSAY_TEST Inhibition of Bacterial Growth, detection method Absorption (OD600), MEDIA CAMHB, plate type 384well, NBS, CORNING #3640
Description: Antibacterial activity against Pseudomonas aeruginosa ATCC 27853 (CO-ADD:GN_042); MIC in CAMBH media using NBS plates, by OD(600)

HEK293 = experiment: cells; type: functional; conditions: Homo sapiens, ATCC CRL1573, HEK293; ASSAY_TEST Inhibition of Cell Viability; detection method Resazurin; Fluorescence (ex560/em590); MEDIA DMEM with 10% FBS; plate type 384well; TC; CORNING #3712; time 18 hr
Acinetobacter baumannii = experiment: microbe, parasite or virus in culture; conditions: ATCC 19606, 18 h, ASSAY_TEST Inhibition of Bacterial Growth, detection method Absorption (OD600), MEDIA CAMHB, plate type 384well, NBS, CORNING #3640
Description: Antibacterial activity against Acinetobacter baumannii ATCC 19606 (CO-ADD:GN_034); MIC in CAMBH media using NBS plates, by OD600

Staphylococcus aureus = experiment: microbe, parasite or virus in culture; conditions: ATCC 43300, 18 h, ASSAY_TEST Inhibition of Bacterial Growth, detection method Absorption (OD600), MEDIA CAMHB, plate type 384well, NBS, CORNING #3640
Description: Antibacterial activity against Staphylococcus aureus MRSA ATCC 43300 (CO-ADD:GP_020); MIC in CAMBH media, using NBS plates, by OD(600)

Candida albicans = experiment: microbe, parasite or virus in culture; conditions: ATCC 90028, ASSAY_TEST Inhibition of Fungal Growth, detection method Absorption (OD530), plate type 384well, NBS, CORNING #3640
Description: Antifungal activity against Candida albicans ATCC 90028 (CO-ADD:FG_001); MIC in YNB media using NBS plates, by OD630

Description for Cryptococcus neoformans: Antifungal activity against Cryptococcus neoformans H99 ATCC 208821 (CO-ADD:FG_002); MIC in YNB media using NBS plates, by Resazurin OD(600-570)

SMILES	MIC (Cryptococcus neoformans) [µg/mL]	MIC (Escherichia coli) [µg/mL]	MIC (Klebsiella pneumoniae) [µg/mL]	MIC (Pseudomonas aeruginosa) [µg/mL]	CC50 (HEK293) [µg/mL]	MIC (Acinetobacter baumannii) [µg/mL]	MIC (Staphylococcus aureus) [µg/mL]	MIC (Candida albicans) [µg/mL]
O=[N+]([O-])c1ccccc1-c1ccccc1N(Cc1ccccc1)c1ccccc1	> 32	> 32	> 32	> 32	8.14 (≈ 21.4 µM)	> 32	> 32	32 (≈ 84.1 µM)
Cc1ccccc1Nc1ccccc1-c1ccccc1[N+](=O)[O-]	32 (≈ 105 µM)	> 32	> 32	> 32	1.95 (≈ 6.41 µM)	> 32	4 (≈ 13.1 µM)	8 (≈ 26.3 µM)
O=[N+]([O-])c1ccccc1-c1ccccc1Nc1ccccc1	16 (≈ 55.1 µM)	> 32	> 32	> 32	2.15 (≈ 7.41 µM)	> 32	16 (≈ 55.1 µM)	8 (≈ 27.6 µM)
Cc1cc(C)c(Nc2ccccc2-c2ccccc2[N+](=O)[O-])c(C)c1	> 32	> 32	> 32	> 32	13.1 (≈ 39.4 µM)	> 32	> 32	16 (≈ 48.1 µM)
Cc1cc(C)c(Nc2ccccc2-c2ccc([N+](=O)[O-])cc2[N+](=O)[O-])c(C)c1	> 32	> 32	> 32	> 32	15.7 (≈ 41.6 µM)	> 32	32 (≈ 84.8 µM)	4 (≈ 10.6 µM)
C=C[C@]1(C)C[C@@H](OC(=O)CO)[C@]2(C)[C@H](C)CC[C@]3(CCC(=O)[C@H]32)[C@@H](C)[C@@H]1O [PLEUROMULIN]	> 32	> 32	> 32	> 32	> 32	> 32	2 (≈ 5.28 µM)	> 32
